Experimental findings from patent publication US20140018537A1, “GPR119 AGONIST” (NIPPON CHEMIPHAR CO., LTD., priority 2008, published 2014) are described below.

The target of one data set is T1, human GPR119 (Homo sapiens, UniProt Q8TDV5).
T1 construct: expressed in transfected cells
T1 sequence (Q8TDV5 1-335): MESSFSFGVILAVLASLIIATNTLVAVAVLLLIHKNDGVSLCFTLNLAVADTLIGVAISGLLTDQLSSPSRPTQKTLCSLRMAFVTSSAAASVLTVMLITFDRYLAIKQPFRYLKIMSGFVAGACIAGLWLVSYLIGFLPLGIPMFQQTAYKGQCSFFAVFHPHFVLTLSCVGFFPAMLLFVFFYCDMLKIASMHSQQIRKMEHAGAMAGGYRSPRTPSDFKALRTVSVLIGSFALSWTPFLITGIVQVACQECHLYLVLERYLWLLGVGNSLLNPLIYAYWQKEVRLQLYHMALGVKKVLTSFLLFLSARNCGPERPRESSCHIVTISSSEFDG
The experiment in a line: Intracellular cAMP increase in human GPR119 introduced cells (HitHunter cAMP XS+ Assay). Format: cell-based. The settings on record: for EC50: hGPR119 stable cells, intracellular cAMP; for GPR119 agonist effect (in words): hGPR119 introduced cells, cAMP. From the text:
The GPR119 agonist effect was studied by measuring the effect of an analyte on increase of intracellular amount of cAMP in human GPR119 introduced cells. The testing method is described below.
(1) Construction of the Stable Cell Line Expressing Human G Protein-Coupled-Receptor 119 (hGPR119) Human GPR119 gene (NM 178471) is purchased from American Type Culture Collection (ATCC No. 10807349). Hind III site-added forward side primer ([…]: sequence No. 1) and Apa I site-added reverse side primer ([…]: sequence No. 2) are designed. The target gene is amplyfied by a polymerase chain reaction (PCR) method using KOD-Plus-Ver. 2 (TOYOBO #KOD-211). PCR is conducted by repeating three steps consisting of the step of 98° C.-10 seconds, the step of 55° C.-30 seconds, and the step of 68° C.-1 minute and 10 seconds in 35 cycles. The amplified PCR product is inserted into pcDNA5/FRT/TO (Invitrogen #V6520-20) plasmid. Cells, which can constantly express the target gene with tetracycline, are constructed using Flp-In T-REx-systen (invitorogen).
(2) Measurement of Intracellular Cyclic Adenosine Monophosphate (cAMP)
The hGPR119 introduced cells prepared in (1) are plated on a 96-well plate using Dulbecco's Modified Eagle Medium containing heat-inactived 10% fetal bovine serum. After incubation of 24 hours, tetracyclin (invitrogen #Q10019) is added to the culture medium to induce hGPR119 gene expression. After further incubation of 24 hours, the cells are stimulated with 0.5 mM 3-ISOBUTYL-1-METHYLXANTHINE (Sigma #17018) phosphate buffer containing the analyte at 37° C. for 30 minutes. The amount of the intracellular cAMP is measured by using FLUOstar Optima (BMG LABTECH) according to the protocol of HitHunter™ cAMP XS+Assay (GE Healthcare #90007503) to give the agonist activity of the analyte to the GPR119 receptor.
(1) Construction of the Stable Cell Line Expressing Human G-Protein Coupled Receptor 119 (hGPR119) hGPR119 gene (NM 178471) was purchased from American Type Culture Collection (ATCC No. 10807349). The forward primer that was added a HindIII site ([…] (sequence number 1)), and the reverse primer that was added an ApaI site ([…] (sequence number 2)) were designed, the target gene was amplified by polymerase chain reaction (PCR) using a KOD-Plus-Ver.2 (TOYOBO #KOD-211). PCR was repeated 3 steps (98° C. for 10 sec, 55° C. for 30 sec, 68° C. for 1 min 15 sec) by 35 cycles. Amplified PCR product was inserted in pcDNA5/FRT/TO (Invitrogen #V6520-20), and the stable cell line that expresses target gene when induced with tetracycline was created using the Flp-In T-Rex system (Invitrogen).
(2) Measuring Method of Intracellular Cyclic Adenosine Monophosphate (cAMP) hGPR119 stable cells made by above-mentioned (1) were plated on 96 well plates in Dulbecco's Modified Eagle Medium containing 10% heat-inactivated FBS. After 24 hours, the hGPR119 expression was induced by adding medium containing tetracycline (Invitrogen #Q10019) and incubating for another 24 hours. Following incubation, cells were stimulated by 0.5 mM 3-ISOBUTYL-1-METHYLXANTHINE (Sigma #17018) phosphate buffered saline containing test compound for 30 minutes at 37° C. Agonist activity of test compound to the GPR119 receptor was estimated by measuring the intracellular cAMP concentration using a Fluostar optima plate reader (BMG LABTECH) according to the manufacturer's protocol of the HitHunter™ cAMP XS+Assay (GE Healthcare #90007503).
The examination was performed by the method similar to Example 86 (Pharmacological experiment 1)-(1), -(2).

A further data set concerns normal mice. The experiment in a line: Oral glucose tolerance test in normal mice. Format: in vivo. As to the method:
Oral glucose tolerance is tested in normal mice.
In this experiment, the inhibitory effect of an analyte on glycemic excursions is examined after glucose administration in normal mice. The test methods are described below.
Male 9-week-old ICR mice, habituated to the experimental environment for two weeks, are fasted for 18 hours and used to this experiment. Mice are orally administered the analyte or vehicle (polyethylene glycol 400:ethanol:Tween 80=8:1:1). After 30 minutes, they were orally given glucose at the dose of 3 g/kg.
Blood was collected at just before the analyte or vehicle administration (−30 minutes), immediately before glucose challenge (0 minute), 20 minutes, 40 minutes, 60 minutes, and 120 minutes after glucose ingestion to determine blood glucose levels.
Inhibition rate (%) of the analyte versus vehicle in areas under the glycemic excursion curve between 0 and 120 min after glucose challenge is determined.
Oral Glucose Tolerance Test in Normal Mice […]
Blood was collected at just before the test compound or vehicle administration (−30 min), immediately before glucose challenge (0 min), 20 min, 40 min, 60 min and 120 min after glucose ingestion and then blood glucose levels were determined.
Inhibition rate (%) of the test compound versus vehicle in areas under the glycemic excursion curve between 0 and 120 min after glucose challenge was determined.

[1] abbreviates: Table 16, tetracycline-induced, 30 minutes at 37° C.

The EC50 is the concentration that produces a half-maximal response. A lower EC50 goes with a more potent agent. A word on the melting point: it is the temperature of the solid-liquid transition.

SMILES strings stand for the structures.

`CC(C)(C)OC(=O)N1CCC(c2ccc(COc3ccc(S(C)(=O)=O)cc3)nc2)CC1` [Example 1, tert-Butyl 4-[2-(4-methanesulfonylphenoxymethyl)pyridin-5-yl]piperidine-1-carboxylate]: a half-maximal effect at human GPR119 (setting [1]) (EC50) was put at 26.8 nM. Also, the “GPR119 agonist effect (in words)” value at human GPR119 was “excellent GPR119 agonist effect”. For the same compound, the “Inhibition rate (%)” value in the data set on normal mice (10 mg/kg oral, male ICR mice, glucose 3 g/kg 30 min later, area under glycemic excursion curve 0-120 min versus vehicle) is on record as 41.8%. Besides, in the data set on normal mice (oral glucose tolerance test of normal mice), the “inhibitory effect on glycemic excursions (in words)” value is recorded as “strong inhibitory effect”.
In turn, `CC(C)(C)OC(=O)N1CCC(c2ccc(COc3ccc(S(C)(=O)=O)cc3)cn2)CC1` [Example 2, tert-Butyl 4-[5-(4-methanesulfonylphenoxymethyl)pyridin-2-yl]piperidine-1-carboxylate] yielded a melting point of 140 to 142 °C. For the same compound, a half-maximal response at human GPR119 (setting [1]) (EC50) required 606 nM. Also, the “GPR119 agonist effect (in words)” value at human GPR119 was “excellent GPR119 agonist effect”.
`Cc1cc(C2CCN(C(=O)OC(C)(C)C)CC2)cnc1COc1ccc(S(C)(=O)=O)cc1` [Example 63, tert-Butyl 4-[2-(4-methanesulfonylphenoxymethyl)-3-methylpyridin-5-yl]piperidine-1-carboxylate] gave a melting point of 130 to 132 °C. On human GPR119 (Table 17, method similar to Example 86), this compound gave a concentration giving a half-maximal response (EC50) of 28.4 nM.
